Experimental data as given in a flash point compilation (Sun et al. 2020).

Assays:
[1] = not given; remark: listed apart in the source
[2] = not given; remark: listed apart in the source
[3] = not given; remark: listed apart in the source

flash point [3]	Compound	flash point	further results
	Cc1cccc([N+](=O)[O-])c1 [m-Nitrotoluene]	106.00 °C	
	Nc1ccc([N+](=O)[O-])cc1 [p-Nitroaniline]	199.00 °C	
	c1ccc(-c2ccccc2-c2ccccc2)cc1 [o-Terphenyl]	163.00 °C	
	CC(O)CO (stereo unspecified) [1,2-Propanediol]	99.00 °C	
102 °C	CCCCCCCCCCCCC [tridecane]		flash point [1]: 79.00 °C; flash point [2]: 94 °C
	CCCCOC(=O)c1ccccc1C(=O)OCCCC [Dibutyl phthalate]	157.00 °C	
	CCCc1ccccc1 [Propyl benzene]	30.00 °C	
	C=CCl [Vinyl chloride]	-78.00 °C	
	COC(C)(C)OC [Dimethoxypropane]	-7.00 °C	
	CCOC(=O)CCl [Ethyl chloroacetate]	66.00 °C	
	C=CCC [1-Butene]	-80.00 °C	
	CC(=O)Nc1ccccc1 [Acetanilide]	174.00 °C	
	O=C(Cl)c1ccccc1 [Benzoyl chloride]	72.00 °C	
	c1ccc(P(c2ccccc2)c2ccccc2)cc1 [Triphenyl phosphine]	180.00 °C	
	O=C1CCCC1 [Cyclopentanone]	26.00 °C	
	Cc1ccco1 [2-Methyl furan]	-30.00 °C	
	Cc1cccc(N)c1C [Xylidine]	97.00 °C	
	O=P(Oc1ccccc1)(Oc1ccccc1)Oc1ccccc1 [Triphenyl phosphate]	220.00 °C	
	CCC[N+](=O)[O-] [1-Nitropropane]	49.00 °C	
	CC(C)CC(O)CC(C)C [Diisobutyl carbinol]	74.00 °C	
	OCCN(CCO)CCO [Triethanolamine]	179.00 °C	
	CC(C)=CC(=O)C=C(C)C [Phorone]	85.00 °C	
	O=C(Cl)C(Cl)Cl [Dichloroacetyl chloride]	66.00 °C	
	CCOC(=O)CC(C)=O [Ethyl acetoacetate]	84.00 °C	
	CC(Cl)(Cl)[N+](=O)[O-] [1,1-Dichloro-1-nitroethane]	76.00 °C	

flash point [3]	Compound	flash point	further results
	C=CC(=C)C [Isoprene]	-54.00 °C	
	CC(=O)OCC(C)C [iso-Butyl acetate]	18.00 °C	
21 °C	CC(C)CCl [1-chloro-2-methylpropane]		flash point [1]: -10.00 °C
	CC(C)(O)C#N [Acetone cyanohydrin]	74.00 °C	
	CCCCS [Butyl mercaptan]	2.00 °C	
	CCOC(=O)CC [Ethyl propionate]	12.00 °C	
	CC(Cl)=CCCl [1,3-Dichloro-2-butene]	27.00 °C	
	CN(C)c1ccccc1 [N,N-Dimethylaniline ]	63.00 °C	
29 °C	CC(C)=CC=C(C)C [2,5-dimethyl-2,4-hexadiene]		flash point [2]: 24 °C
	O=[N+]([O-])c1ccc(Cl)c([N+](=O)[O-])c1 [1-Chloro-2,4-dinitrobenzene]	194.00 °C	
	C1=COCCC1 [3,4-Dihydro-2H-pyran]	-18.00 °C	
	Cc1cccc(N)c1 [m-Toluidine]	86.00 °C	
	O=CCCl [Chloroacetaldehyde]	88.00 °C	
	CC(C)(C)O [tert-Butyl alcohol]	10.00 °C	
	C=CCC=CC [1,4-Hexadiene]	-21.00 °C	
	c1ccc(-c2ccccc2)cc1 [Biphenyl]	113.00 °C	
-29 °C	CC1CCCC1 [methylcyclopentane]		flash point [1]: -24.00 °C; flash point [2]: -23 °C
65 °C	C1CCCCCCCCC1 [cyclodecane]		flash point [2]: 59 °C
	CN(C)C [Trimethyl amine]	-7.00 °C	
77 °C	C=CCCCCCCCCCC [1-dodecene]		flash point [2]: 73 °C
79 °C	CC(CCO)CC(C)(C)C (stereo unspecified) [3,5,5-trimethyl-1-hexanol]		flash point [2]: 80 °C
	NC=O [Formamide]	155.00 °C	
	CC(Cl)CCl (stereo unspecified) [1,2-Dichloropropane]	16.00 °C	
	CC=CC=CC=O [2,4-Hexadienal]	68.00 °C	
-6 °C	C1=CCC=CC1 [1,4-cyclohexadiene]		flash point [2]: -11 °C

flash point [3]	Compound	flash point	further results
	CCCOC(C)=O [n-Propyl acetate]	14.00 °C	
15 °C	CC(=O)OC(C)(C)C [tert-butyl acetate]		flash point [1]: 22.00 °C
	Cc1ccccc1[N+](=O)[O-] [o-Nitrotoluene]	106.00 °C	
	Nc1cccc2ccccc12 [1-Naphthylamine]	157.00 °C	
	CCCCCCCN [n-Heptylamine]	54.00 °C	
	CCCCC(C)OC(C)=O (stereo unspecified) [sec-Hexyl acetate]	45.00 °C	
	C=C(C)C(=O)OC [Methyl methacrylate]	10.00 °C	
	C=CC=CC [Piperylene]	-43.00 °C	
	C=CC(=O)OC [Methyl acrylate]	-3.00 °C	
	c1ccc(-c2cccc(-c3ccccc3)c2)cc1 [m-Terphenyl]	135.00 °C	
	CCC(Cl)[N+](=O)[O-] (stereo unspecified) [1-Chloro-1-nitropropane]	62.00 °C	
50 °C	C#CCCCCCCCC [1-decyne]		flash point [2]: 48 °C
32 °C	ClC1CCCCC1 [chlorocyclohexane]		flash point [2]: 28 °C
8 °C	CCCCC=O [pentanal]		flash point [1]: 12.00 °C
41 °C	C#CCCCCCC#C [1,8-nonadiyne]		flash point [2]: 42 °C
-19 °C	C=C1CCCC1 [methylenecyclopentane]		flash point [2]: -18 °C
-17 °C	CC1=CCCC1 [1-methylcyclopentene]		flash point [2]: -19 °C
-3 °C	CC1=CCCCC1 [1-methylcyclohexene]		flash point [2]: -1 °C
35 °C	C1COCCN1 [morpholine]		flash point [1]: 38.00 °C
-11 °C	CC#CCCC [2-hexyne]		flash point [2]: -10 °C
44 °C	CCOCCO [2-ethoxyethanol]		flash point [1]: 41.00 °C
20 °C	CCC(=O)OC(C)(C)C [t-butyl propionate]		
56 °C	CCc1ccc(CC)cc1 [1,4-diethylbenzene]		
11 °C	CCCC(=O)OC [methyl butyrate]		
37 °C	Cc1ccnc(C)c1 [2,4-dimethylpyridine]		

flash point [3]	Compound	flash point	further results
144 °C	CCCCCCCCCCCc1ccccc1 [undecylbenzene]		
203 °C	c1ccc(CN(Cc2ccccc2)Cc2ccccc2)cc1 [tribenzylamine]		
51 °C	COCCOCCOC [diethylene glycol dimethyl ether]		
104 °C	CCc1ccc(O)cc1 [4-ethylphenol]		
73 °C	CSCc1ccccc1 [benzyl methyl sulfide]		
-31 °C	CNC(C)C [N-methyl-2-propanamine]		
25 °C	SC1CCCC1 [cyclopentanethiol]		
32 °C	C1=CCCC=CCC1 [1,5-cyclooctadiene]		flash point [2]: 35 °C
74 °C	CC(C)CC(=O)O [3-methylbutanoic acid]		flash point [1]: 70.00 °C
40 °C	CC(C)COC(=O)C(C)C [isobutyl isobutyrate]		
100 °C	Cc1ccc(O)c(C(C)(C)C)c1 [2-t-butyl-4-methylphenol]		
105 °C	c1ccc2ncccc2c1 [quinoline]		
34 °C	CCC(O)CC [3-pentanol]		
33 °C	C=C(C)CO [2-methyl-2-propen-1-ol]		
60 °C	CCCCSCCCC [dibutyl sulfide]		
49 °C	CCc1ccccc1CC [o-diethyl benzene]		
-25 °C	NC1CC1 [cyclopropylamine]		
6 °C	CCCC(CC)CC [3-ethylhexane]		
34 °C	NCCN [1,2-ethanediamine]		
74 °C	Ic1ccccc1 [iodobenzene]		
26 °C	CC1=CC=CC1 [methylcyclopentadiene]		
71 °C	CCCCCCCO [1-heptanol]		
69 °C	CCN(C#N)CC [diethylcyanamide]		
116 °C	CCCCNC(C)=O [N-butylacetamide]		
-26 °C	CC(C)(C)S [2-methyl-2-propanethiol]		flash point [2]: -24 °C

Compound	flash point [3]	flash point	further results
NCCNCCN [diethylenetriamine]	97 °C		flash point [2]: 90 °C
CCCBr [1-bromopropane]	21 °C		flash point [1]: 26.00 °C
CCBr [bromoethane]	-20 °C		flash point [1]: -23.00 °C
COC(=O)OC [dimethyl carbonate]	18 °C		flash point [1]: -1.00 °C
COCCOC(C)=O [2-methoxyethylacetate]	45 °C		flash point [2]: 43 °C
N#CCCO [3-hydroxypropanenitrile]	129 °C		
ClCC(Cl)Cl [1,1,2-trichloroethane]	32 °C		
CCCCl [1-chloropropane]	-31 °C		flash point [1]: -18.00 °C
CC(=O)CCC(C)=O [2,5-hexanedione]	79 °C		
OCC(O)CO [glycerol]	184 °C		
CCCCBr [1-bromobutane]	13 °C		flash point [1]: 18.00 °C
CC(Cl)(Cl)Cl [1,1,1-trichloroethane]	-1 °C		
C=C(C)C(C)=O [methyl isopropenyl ketone]	13 °C		
C=CC(=O)OCCCC [2-propenoic acid, butyl ester]	37 °C		
CCCCOCCOC(C)=O [2-butoxyethyl acetate]	71 °C		
